Patent US20240342273A1, “IMMUNOTHERAPEUTIC METHOD FOR INCREASING CASHEW TOLERANCE IN A SUBJECT” (DBV Technologies, priority 2021, published 2024)
Entries after “also recorded” stand apart in the source; their conditions may differ.

Assays:
[1] = test system: CD62L+/FoxP3+ Tregs; experiment: Phenotyping of Tregs by FACS in spleen and brachial lymph nodes; type: in vivo, mice; conditions: after 8 weeks of EPIT; Tregitope co-administered with cashew
Protocol: (§1) Sensitized mice were then treated by epicutaneous immunotherapy using Viaskin patches: • 10 mice were treated with viaskin containing excipient (Phosphate buffer 0.1 M+DMSO) • 10 mice were treated with viaskin containing 50 μg cashew protein (Stallergenes Greer, ref XPF84D3A2.5), • 10 mice were treated with viaskin containing 50 μg cashew protein+50 μg T1 • 10 mice were treated with viaskin containing 50 μg cashew protein+50 μg T2 • 10 mice were treated with viaskin containing 50 μg cashew protein+50 μg T3 • 10 mice were treated with viaskin containing 50 μg cashew protein+50 μg T1+50 μg T2+50 μg T3 • 10 mice were treated with viaskin containing 50 μg T1+50 μg T2+50 μg T3 m Tregitopes T1, T2 and T3 correspond to the homologs of human Tregitopes of SEQ ID NO: 1, SEQ ID NO:2 and SEQ ID NO:3, respectively. The N-terminus of the tested peptides was acetylated (CH3(C═O)—) while the C-terminus was amidated (—NH2) to prevent degradation by protease. […]
(§2) Anaphylactic reactions were characterized by a drop in body temperature and the occurrence of clinical symptoms. […] Cashew-specific IgE, IgG1 and IgG2a were measured by in house ELISA. […]

[2] = test system: re-stimulated splenocytes; experiment: In vitro culture of spleen cells with or without cashew stimulation (proliferation, cytokine production); type: cell-based, mice; conditions: splenocytes after 8 weeks of EPIT
Protocol: as §1, §2

[3] = test system: cashew-sensitized mice; experiment: Oral cashew challenge after 8 weeks of EPIT (anaphylaxis: body temperature, clinical symptoms, mMCP-1); conditions: Tregitope co-administered with cashew allergen extract by epicutaneous route, cashew-sensitized mouse model

T2: mTregitope from IgG1 (CH), EEQFNSTFRSVSELPIMHQ, homolog of human Tregitope SEQ ID NO: 2 (Ac-EEQFNSTFRSVSELPIMHQ-NH2) [Tregitope T2]
numbers of CD62L+/FoxP3+ Tregs in skin-draining lymph nodes (FIG. 2B) [1]: increase | numbers of CD62L+/FoxP3+ Tregs in spleens (FIG. 2A) [1]: increase | Th2 cytokines (IL-4) in re-stimulated splenocytes (FIG. 2D) [2]: down-modulation | cashew specific T-cell proliferation (FIG. 2C) [2]: reduced | potentiation of the efficacy of EPIT for providing tolerance to cashew [3]: clearly potentiate; also recorded: particularly marked
